Test results reported in US20060019971A1, “Treatment of cardiovascular disease with inhibitors of p38 kinase” (priority 2003, published 2006).
Entries after “also recorded” stand apart in the source; their conditions may differ.

How the values were obtained:
Assay type in all cases: cell-based, human
TF protein in HPBMCs = test: Tissue Factor protein expression in HPBMCs, Western; settings: 1 μM SD, 16 hours
Protocol: (§1) The figures illustrate the effects of CRP on TF protein and mRNA expression in HPBMCs and their modulation by p38 inhibitor. 1.5×10^6 HPBMCs were plated in 48-well. After 1 hour medium was removed and cells were incubated with or without 10 μg/ml of purified human CRP in serum-free RPMI 1640. In parallel experiments, cells were treated with 10% FCS together with the CRP treatment. For the p38 antagonism, p38 inhibitor was added to a final concentration of 1 μM in the parallel treatment. After 16 hours cells were lysed and TF protein level was determined by Western blot. TF signal was normalized by GAPDH signal. As shown in FIG. 7(c), after 6 hours TF mRNA level were determined by real-time PCR as described in the Experimental section.
Cryopreserved human peripheral blood monocytes (HPBMCs, from Biowitker, Walkersvill, Md.) were thawed and washed twice in RPMI 1640. Cells were plated in tissue culture plates and incubated in 5% CO2 at 37 C. After 1 hr media were removed and cells were treated with various treatments. After 2 to 20 hours conditioned media and/or cell lysates were collected for the analyses of secreted cytokines, protein or mRNA expression. 10 μg/ml of purified human CRP (Calbiochem, San Diego, Calif.) was used in most of the treatments. In some experiments fetal calf serum (FCS from ATCC) was added to a final concentration of 10% together with CRP. In the examples provided herein, including those assessing the effects of p38 antagonism, cells were pre-treated with SD, a p38 small molecule inhibitor (Compound 162 in Table A) for 1 hour prior to CRP treatment as described above. In a parallel series of experiments, the effect of vehicle (DMSO) was tested. […]
HPBMCs were treated as described above (p38 MAP kinase activation). […] 10 μg total proteins were resolved on LDS-PAGE (In Vitrogen, Carlsbad, Calif.), and tissue factor protein expression was determined by Western using antibody against human tissue factor (American Diagnostica, Stamford, Conn.). […]

TF mRNA in HPBMCs = test: Tissue Factor mRNA expression in HPBMCs, real-time PCR; settings: 1 μM SD, 6 hours
Protocol: as §1, with “section. […]” for “section.”
(§2) RNA was extracted from the cells using Qiagen RNA extraction kit according to the manufacturer's instruction. The expression of pro-inflammatory genes IL-1β, IL-6, IL-8, TNFα, COX-2, ET-1, TF were assessed by real-time PCR. […]
(§3) Real-time RT-PCR was performed in a two-step manner. cDNA synthesis and real-time detection were carried out in a PTC-100™ Thermal Cycler (MJ Research Inc, Waltham, Mass.) and an ABI Prism™ 7700 Sequence Detection System (Applied Biosystems, Foster City, Calif.), respectively. […] Relative quantitation of gene expression was performed using the relative standard curve method. […]

TNFα mRNA in HPBMCs = test: TNFα gene expression in HPBMCs, real-time PCR; settings: 2 hours
Protocol: 5×10^6 HPBMCs were plated in 6-well. After 1 hour medium was removed and cells were treated with vehicle or 1μM p38 inhibitor in RPMI 1640 medium. After 1 hour cells were stimulated with 10% FCS only or 10 μg/ml CRP plus 10% FCS. After 6 hours conditioned medium was collected and IL-1b and TNFa levels were determined by ELISA. […] 5×10^6 HPBMCs were plated in 6-well. After I hour medium was removed and cells were treated with vehicle or […] p38 inhibitor in RPMI 1640 medium. After 1 hour cells were stimulated with 10% FCS only or 10 μg/ml CRP plus 10% FCS. After 2 hours RNA was extracted from the cells and TNFa (c) and IL-1b (d) expression levels were determined by real-time PCR as described in the Experimental section. […]
as §2, §3

C[C@@H]1CN(Cc2ccc(F)cc2)[C@@H](C)CN1C(=O)c1cc2c(C(=O)C(=O)N(C)C)c[nH]c2cc1Cl [Compound 162]
reduction of TF protein expression invoked by CRP plus FCS (TF protein in HPBMCs): to control level | reduction of TF protein expression invoked by FCS (TF protein in HPBMCs): to control level | reduction of TF protein expression invoked by CRP (TF protein in HPBMCs; listed as SD): to control level; also recorded: blocked | inhibition of basal TF mRNA expression (TF mRNA in HPBMCs): almost completely inhibitied | inhibition of CRP induced TF mRNA expression (TF mRNA in HPBMCs; listed as SD): almost completely inhibitied; also recorded: blocked | inhibition of CRP augmented TNFα transcription (TNFα mRNA in HPBMCs; 1 μM SD): completely attenuated | FCS induced TNFα transcription, sensitivity to SD treatment (TNFα mRNA in HPBMCs; 10% FCS): sensitive
